# Experimental data taken from paper PMC5295395, “Inhibition of PlexA1-mediated brain tumor growth and tumor-associated angiogenesis using a transmembrane domain targeting peptide” (Oncotarget, 2016).
# Legend:
# [1] = test system: PH3 positive cells in U118MG-Luc tumors; experiment: PH3 immunostaining of U118MG-Luc xenograft tumor sections; assay type: in vivo, human cells in mouse; conditions: 5 sections per tumor, vs control; p = 0.0022, Mann Whitney
# Protocol: To address the biological consequences of MTP-PlexA1-mediated inhibition of PlexA1 we used the U118MG-Luc glioma cell line genetically engineered to express the luciferase reporter gene. […] Cells were then grafted subcutaneously and tumor growth was monitored every 5 days for a total period of 20 days. […] The quantitative analysis of the cumulated luminescent signal acquired all along the protocol confirmed the strong reduction of tumor development translating into a marked 75% reduction of the averaged luminescent signal at the end point (Figure 6C). […] In order to clarify the mechanism by which MTP-PlexA1 is exerting tumor growth inhibition we collected tumors and analyzed them histologically.
# (B) Representative photographs illustrating the kinetic of tumor growth over 20 days in the two experimental groups. […] (D) Waterfall plot of best response representing the percent change in tumor volume of individual treated animals (grey bars, n = 10) compared to the average tumor volume increased determined in the control group (dark bars, n = 10). […] (F) Representative microphotographs and related quantification of PH3 positive cells in tumor slices (G) Representative microphotographs and related quantification of CD31 positive regions in tumor slices (% CD31 per μm² of tumors).
# [2] = test system: PlexA4-PlexA1 complex; experiment: co-immunoprecipitation of Plexin-A4 with PlexA1 in U373MG cells; assay type: cell-based, human; conditions: 10^−7 M peptide 1 h
# Protocol: (C) Rac-1 activation assay in resting condition and after Sema3A-induced Rac-1 activation in U373 MG cells. (D) Western blot analysis of phosphorylated Akt, total Akt and tubulin in U373MG cells treated with the vehicle (LDS 72 μM), Sema3A (100 ng/ml) or Sema3A + MTP-PlexA1 (10^−7 M). The lower panel is showing the quantification of the p-Akt/Akt ratio in the different conditions. (E) MTP-PlexA1 decreases VEGFR-2 phosphorylation induced by VEGF (100 ng/ml) in HUVEC cells. […]
# in 20 mM sodium acetate (pH 4.5) at a flow rate of 5 μl/ min 10–7 M of MTP-PlexA1 or Vehicle (LDS, 72 µM) during until desired surface densities, measured in response 1 h. Stimulation was done with 100ng/ml Semaphorin 3A units, were reached. […] First antibodies (Rabbit anti-phospho-the elution buffer containing detergent removed non- akt, Rabbit anti-akt, Cell Signaling #4060 and #9272 biotinylated peptides rendering the chip ready for analysis respectively) and mouse anti-tubulin α (Cell Signaling with monomeric biot-MTP-PlexA1. Blank surfaces were #2144) were incubated overnight at 4°C (+ anti-NRP1, used for background corrections. Injections of 30 µl anti-PlexA4 Abcam). […] Images of the immuno-blots cells per well in a 6-well plate and serum starved overnight. were acquired and analyzed thanks to the GENE GNOME Before protein extraction, the cells were treated either with apparatus (Syngene Bio Imaging, UK).
# [3] = test system: HMEC cells; experiment: 3D migration assay with HMEC spheroids in plasma clot; assay type: cell-based, human; conditions: 3D plasma clot, MTP-PlexA1 10^−7 M, VEGF 100 ng/ml
# [4] = test system: U373MG cells; experiment: 3D migration assay, U373MG spheroids in plasma clot; assay type: cell-based, human; conditions: 3D plasma clot, 24 h, VEGF 100 ng/ml, MTP-PlexA1 10–7 M
# Protocol: Supplementary Figure S6: The anti-tumor effect of MTP-PlxA1 was verified in U373MG human GBM line. We found […]
# Because PlexA1 is involved in cell migration we also performed a 3D migration assay. U373MG cells were grown as cell aggregates (micro tumor-like spheroids) for 24 h in plasma clot with or without VEGF. […]
# migration that formed cell chains invading the 3D substrate as previously described (12). Strikingly, VEGF-induced cell migration was abolished when MTP-PlexA1 at 10–7 M was added to the cultures. […]
# of PlexA1, this part of the study exemplified the therapeutic potential of MTP-PlexA1 because this peptide was able to block two major mechanisms of tumor progression.
# (Stable Disease) and 62.5% PR (Partial Response).
# (1 picture or pasted object on this page, not shown here)
sequence,measurement,setting,value
"TLPAIVGIGGGGGLLLLVIVAVLIAYKRK [MTP-PlexA1, synthetic transmembrane peptide mimicking the TMD of PlexA1]",decrease of PH3 positive proliferative cells in tumors,[1],37.3%
same,"change of PlexA4 co-immunoprecipitated with PlexA1, Sema3A-induced",[2]; Sema3A 100 ng/ml 30 min,−35.5%
same,"reduction of PlexA4 co-immunoprecipitated with PlexA1, VEGF",[2]; VEGF 100 ng/ml 10 min,35.4%
same,VEGFA-induced HMEC cell migration,[3],abolished
same,VEGF-induced U373MG tumor cell migration,[4],abolished
